Key:
SpCas9 = SpCas9 (Streptococcus pyogenes serotype M1, UniProt Q99ZW2); assay: Targeted deep sequencing of indels (eGFP, EMX1, FANCF, VEGFA); format: cell-based
Procedure: U2OS.eGFP.PEST cells were nucleofected as described above for the eGFP disruption assay, plated in a 24-well plate at the density of 150,000 cells per well, and incubated with BRD7586 for 24 h. Then, the genomic DNA was extracted using DNeasy Blood & Tissue Kit (Qiagen). HEK293T cells were plated in a 24-well plate at the density of 100,000 cells per well. The next day, cells were transfected with 500 ng of SpCas9 plasmid and 250 ng of EMX1-, VEGFA-, or FANCF-targeting gRNA plasmid using Lipofectamine 3000 (Invitrogen). Indicated amount of compound was added at the time of transfection, cells were incubated for 24 h or 48 h, and genomic DNA was extracted. Next-generation sequencing (NGS) samples were prepared using a two-step PCR protocol. NGS libraries were quantified using KAPA Library Quantification Kit (Roche) and diluted to 4 nM. Sequencing of the pooled library was performed using MiSeq Reagent Kit v2 (Illumina). The percentage of indel in the demultiplexed sequence files was analyzed using the CRISPResso2 software from the Pinello Lab.^49

U2OS.eGFP.PEST cells [1] = assay: CellTiter-Glo cell viability assay, U2OS.eGFP.PEST; format: cell-based, human; conditions: 24 h
Procedure: (§1) HEK293T cells or U2OS.eGFP.PEST cells were plated in a 96-well plate at the density of 30,000 cells per well or 20,000 cells per well, respectively. The next day, cells were treated with indicated amount of compounds for 24 h. Then, cellular ATP levels were measured using CellTiter-Glo Luminescent Cell Viability Assay (Promega) with an EnVision Multilabel Plate Reader (PerkinElmer) at the integration time of 0.5 s per well.

[2] = molecular target: SpCas9:gRNA complex and DNA (Streptococcus pyogenes serotype M1, UniProt Q99ZW2); assay: Fluorescence polarization SpCas9:PAM DNA interaction assay; format: binding
SpCas9:gRNA complex and DNA, sequence (Q99ZW2 whole entry, one chain of several): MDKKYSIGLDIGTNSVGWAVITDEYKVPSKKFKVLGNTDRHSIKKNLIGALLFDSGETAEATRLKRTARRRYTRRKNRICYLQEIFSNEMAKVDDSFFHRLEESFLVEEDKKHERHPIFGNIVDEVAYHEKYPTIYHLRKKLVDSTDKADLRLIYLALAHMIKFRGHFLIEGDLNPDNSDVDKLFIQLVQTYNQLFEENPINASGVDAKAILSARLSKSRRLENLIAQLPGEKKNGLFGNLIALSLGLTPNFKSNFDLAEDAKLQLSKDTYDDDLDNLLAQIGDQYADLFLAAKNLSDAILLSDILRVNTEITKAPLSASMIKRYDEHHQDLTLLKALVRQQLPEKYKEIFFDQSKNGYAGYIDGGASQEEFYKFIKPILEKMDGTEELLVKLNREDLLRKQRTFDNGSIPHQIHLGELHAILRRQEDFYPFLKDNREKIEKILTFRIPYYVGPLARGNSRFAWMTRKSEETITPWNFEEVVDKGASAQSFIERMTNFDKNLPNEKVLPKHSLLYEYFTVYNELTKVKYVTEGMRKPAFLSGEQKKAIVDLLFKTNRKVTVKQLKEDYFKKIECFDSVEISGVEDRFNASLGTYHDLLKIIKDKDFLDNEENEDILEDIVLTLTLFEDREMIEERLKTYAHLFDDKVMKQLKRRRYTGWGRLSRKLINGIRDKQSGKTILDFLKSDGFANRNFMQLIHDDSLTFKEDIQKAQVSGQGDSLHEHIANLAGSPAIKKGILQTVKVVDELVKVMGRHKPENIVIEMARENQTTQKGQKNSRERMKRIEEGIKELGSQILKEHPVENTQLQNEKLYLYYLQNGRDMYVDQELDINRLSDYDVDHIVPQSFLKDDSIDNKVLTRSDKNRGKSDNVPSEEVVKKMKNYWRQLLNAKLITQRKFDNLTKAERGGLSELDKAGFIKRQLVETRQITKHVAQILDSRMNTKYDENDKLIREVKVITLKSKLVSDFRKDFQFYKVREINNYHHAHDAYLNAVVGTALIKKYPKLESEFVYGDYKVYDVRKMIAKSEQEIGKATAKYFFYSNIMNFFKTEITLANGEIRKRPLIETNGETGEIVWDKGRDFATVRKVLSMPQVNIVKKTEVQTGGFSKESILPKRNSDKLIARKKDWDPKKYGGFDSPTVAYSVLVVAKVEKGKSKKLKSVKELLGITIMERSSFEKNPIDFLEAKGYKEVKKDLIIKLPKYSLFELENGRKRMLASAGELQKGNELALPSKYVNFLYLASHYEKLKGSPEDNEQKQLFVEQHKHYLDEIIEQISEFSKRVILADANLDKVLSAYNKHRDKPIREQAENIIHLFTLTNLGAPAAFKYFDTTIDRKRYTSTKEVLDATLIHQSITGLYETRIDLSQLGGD
Text: The fluorescence Polarization-based Assay may monitor the change in the fluorescence polarization of the fluorophore-labelled PAM-rich target DNA (e.g., a 12PAM-DNA) upon binding to [Cas9:guideRNA] complex.
Fluorescence polarization is a useful technique to monitor the interaction between two molecules, including for example, Cas9-gRNA (ribonucleoprotein) complex and target DNA (e.g., 12PAM).
Fluorescence polarization may be used to measure the binding constants and kinetics of reactions that cause a change in the rotational time of the molecules. The technique is based on the change in the tumbling rate or mass after complexation. […] The degree of binding is calculated by using the difference in anisotropy of the partially bound, free and fully bound (large excess of protein) states measured by titrating the two binding partners. […]
Development of cumulative activity assay (CAA) for SpCas9. Applicants previously reported an assay that uses fluorescence polarization (FP) to monitor the binding between a fluorophore-labeled poly-PAM DNA oligonucleotide and SpCas9 charged with a non-targeting gRNA.^17 This assay permitted screening for small molecules that interfered with the early steps of the SpCas9 catalytic mechanism, namely, binding of SpCas9 and the relatively low-affinity NGG PAM DNA sequence. […]

HEK293T cells = assay: CellTiter-Glo cell viability assay, HEK293T; format: cell-based, human; conditions: 24 h
Procedure: as §1

SpCas9 expression = assay: Immunoblotting of SpCas9 expression; format: cell-based; conditions: HEK293T and U2OS.eGFP.PEST, 24 h
Procedure: Approximately 500,000 U20S.eGFP.PEST cells were nucleofected as described above with 500 ng of SpCas9 plasmid. Then, cells were plated in a 12-well plate with indicated amount of compound, and incubated for 24 h. HEK293T cells were transfected with 500 ng SpCas9 plasmid as described above, and incubated with the compound for 24 h in a 24-well plate. Cells were harvested and lysed by RIPA buffer containing Protease Inhibitor Cocktail (Roche). Lysate was cleared by centrifugation at 20,000 g in 4° C., and the supernatant was taken to measure the protein concentration using BCA assay. Approximately […] of the total protein was used for immunoblotting. Rabbit anti-SpCas9 (Abcam #89380, 1:1,000 dilution) and mouse anti-a-tubulin (CST #3873, 1:2,000 dilution) were used as primary antibodies. IRDye 680RD Donkey anti-Rabbit IgG (LI-COR #925-68073, 1:10,000 dilution) and IRDye 800CW Donkey anti-Mouse IgG (LI-COR #925-32212, 1:10,000 dilution) were used as secondary antibodies.

LbCas12a = assay: eGFP disruption assay, LbCas12a RNP; format: cell-based; conditions: RNP delivery, U2OS.eGFP.PEST, 24 h
U2OS.eGFP.PEST cells [3] = assay: eGFP fluorescence counter assay in absence of SpCas9:gRNA; format: cell-based, human
Procedure: FIG. 73A-73E Counter assays to validate BRD7586 in cells FIG. 73A,B Immunoblotting analysis of SpCas9 expression in (A) HEK293T cells or (B) U20S.eGFP.PEST cells transfected with SpCas9 plasmid were incubated with BRD7586 for 24 h (n=2 or 3 independent experiments). p>0.05 for BRD7586 at […] compared to DMSO in U20S.eGFP.PEST cells (paired t test, two-tailed) FIG. 73C Changes in the fluorescence intensity in the presence of BRD7586 in U20S.eGFP.PEST. Cells were treated with the compound for 24 h, and the fluorescence was measured to calculate the fraction of GFP-positive populations. Means from 3 independent experiments are shown. […] Error bars represent SD from 3 independent experiments. For SpCas9, p≤0.01 for BRD7586 at 15 μM compared to DMSO. For LbCas12a, p>0.05 for BRD7586 at 15 μM compared to DMSO in all experiments (unpaired t test, two-tailed).

SpCas9, sequence (Q99ZW2 whole entry): as the sequence (Q99ZW2 whole entry, one chain of several) above

## O=C(CCS(=O)(=O)c1ccc(Cl)cc1)Nc1nc(-c2ccncc2)cs1 [BRD7586]
SpCas9; HEK293T, EMX1, FANCF or VEGFA, 48 h
  Specificity of SpCas9 (on-target versus off-target ratio): enhanced the specificity of SpCas9
SpCas9; multiple genomic loci
  Inhibition of indel activity by next-generation sequencing: inhibited the indel activity of SpCas9 at multiple genomic loci
U2OS.eGFP.PEST cells [1]
  Cytotoxicity: without introducing cytotoxicity
[2]
  Inhibition of binding between SpCas9:gRNA complex and DNA: does not inhibit the binding
HEK293T cells
  Cytotoxicity: without introducing cytotoxicity
SpCas9 expression
  Effect on SpCas9 expression: without altering its expression
LbCas12a
  Effect on activity of LbCas12a: did not affect the activity
U2OS.eGFP.PEST cells [3]
  Effect on eGFP expression in the absence of SpCas9:gRNA: without affecting the eGFP expression

From patent US20240115557A1, “INHIBITORS OF RNA-GUIDED NUCLEASES AND USES THEREOF” (The Brigham and Women's Hospital, Inc., priority 2022, published 2024)
